Data: patent US12474353B2, “Methods and materials for assessing and treating obesity” (Mayo Foundation for Medical Education and Research, priority 2017, dated 2025)

Conditions: human, in vivo
Experimental: The applicability of obesity-related phenotypes as actionable biomarkers was tested in three pilot, proof of concept studies (see, e.g., Acosta et al., 2015 Gastroenterology 148:537-546; Acosta et al., 2015 Physiol Rep 3; and Halawi et al., 2017 Lancet Gastroenterol Hepatol 2:890-899). First, in a single-center, randomized, parallel-group, double-blind, placebo-controlled, 14-day study, the effects of Phentermine-topiramate-ER (PhenTop) (7.5/46 mg, orally, daily) on gastric emptying (GE) and volume, satiation, satiety, and fasting and postprandial GI hormones was evaluated in 24 obese adults. […] Subsequently, in a prospective, NIH-funded, randomized, placebo controlled clinical trial to study the effects of liraglutide 3 mg, SQ, over 16 weeks on obesity phenotypes and weight in 40 obese patients. […]
A prospective, randomized clinical trial with liraglutide, a long-acting GLP-1 receptor agonist, was completed. […] At baseline and after 16 weeks' treatment, weight, gastric emptying of solids (GES, primary endpoint), large fasting gastric volumes, satiation, and satiety were measured. GES was also measured at 5 weeks. […] Effect of liraglutide on GES T1/2 at 5 and 16 weeks in the liraglutide group was analyzed by paired t-test. Seventeen participants were analyzed in the liraglutide group (n=19 randomized) and 18 in the placebo group (n=21 randomized).

For `CCCCCCCCCCCCCCCC(=O)N[C@@H](CCC(=O)NCCCC[C@H](NC(=O)[C@H](C)NC(=O)[C@H](C)NC(=O)[C@H](CCC(N)=O)NC(=O)CNC(=O)[C@H](CCC(=O)O)NC(=O)[C@H](CC(C)C)NC(=O)[C@H](Cc1ccc(O)cc1)NC(=O)[C@H](CO)NC(=O)[C@H](CO)NC(=O)[C@@H](NC(=O)[C@H](CC(=O)O)NC(=O)[C@H](CO)NC(=O)[C@@H](NC(=O)[C@H](Cc1ccccc1)NC(=O)[C@@H](NC(=O)CNC(=O)[C@H](CCC(=O)O)NC(=O)[C@H](C)NC(=O)[C@@H](N)Cc1cnc[nH]1)[C@@H](C)O)[C@@H](C)O)C(C)C)C(=O)N[C@@H](CCC(=O)O)C(=O)N[C@@H](Cc1ccccc1)C(=O)N[C@H](C(=O)N[C@@H](C)C(=O)N[C@@H](Cc1c[nH]c2ccccc12)C(=O)N[C@@H](CC(C)C)C(=O)N[C@H](C(=O)N[C@@H](CCCNC(=N)N)C(=O)NCC(=O)N[C@@H](CCCNC(=N)N)C(=O)NCC(=O)O)C(C)C)[C@@H](C)CC)C(=O)O` [liraglutide], the “Nausea (most common adverse event)” value was 63.2%.
